Assays:
ZAC/hα1-Gly = experiment: TEVC, chimeric ZAC/hα1-Gly receptor in oocytes; assay type: cell-based, human; details: 30 μM, EC20–EC40 Zn2+
Description: (§1) The cDNAs for the various WT and chimeric CLR subunits were linearized and subsequently transcribed and capped mMessage mMachine T7 RNA transcription kit (Ambion, Waltham, MA). […]
(§2) On the day of experiment, all compound dilutions were prepared in a saline solution [115 mM NaCl, 2.5 mM KCl, 10 mM MOPS (pH 7.5), 1.8 mM CaCl2, 0.1 mM MgCl2] and pH adjusted to 7.5 (if needed). […] Currents were recorded using pCLAMP 10 (Molecular Devices, Sunnyvale, CA). […]
(§3) In all recordings, the compounds or compound combinations were applied in the bath until the peak current decayed to a steady state (up to 30 sec at the most). […] The functional properties of the modulators at the CLRs were determined by pre-application of the modulator to the perfusate 30 sec and followed by co-application of the modulator and the agonist to the perfusate. […]
(§4) Data analysis of the results from the TEVC recordings were performed using Clampfit software version 10.5 (Molecular Devices, Crawley, UK) and GraphPad Prism version 7.0c (GraphPad Software, Inc. La Jolla, CA). […] I-V relationships were analyzed by fitting the curves with a third order polynomial model. […]

hα3β4 nAChR = hα3β4 nAChR (Homo sapiens, UniProt P30926+P32297); experiment: TEVC selectivity, hα3β4 nAChR in oocytes; assay type: cell-based; details: 30 μM, 30 s preapplication, 3 μM (S)-nicotine (EC20–EC40)
Description: as §1, §2, §3, §4

ZAC = target: T1, ZAC (Homo sapiens, UniProt Q401N2); experiment: TEVC recordings, H+-evoked currents at ZAC expressed in Xenopus oocytes; assay type: cell-based
T1 sequence (Q401N2 26-412): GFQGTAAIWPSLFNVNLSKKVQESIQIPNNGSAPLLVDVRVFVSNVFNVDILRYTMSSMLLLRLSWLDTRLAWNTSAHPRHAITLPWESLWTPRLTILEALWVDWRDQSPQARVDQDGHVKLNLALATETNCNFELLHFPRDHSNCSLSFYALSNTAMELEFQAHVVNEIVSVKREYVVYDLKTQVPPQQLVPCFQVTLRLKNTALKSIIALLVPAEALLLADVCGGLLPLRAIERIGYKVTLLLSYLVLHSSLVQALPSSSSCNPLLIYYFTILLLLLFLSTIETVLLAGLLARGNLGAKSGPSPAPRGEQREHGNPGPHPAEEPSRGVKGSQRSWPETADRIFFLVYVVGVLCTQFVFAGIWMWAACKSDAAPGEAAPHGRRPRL
Description: as §1, §2, §3, §4

Solubility (remark) = assay type: physicochemical
hEAAT3 = target: T2, hEAAT3 (Homo sapiens, UniProt P43005); experiment: FMP assay at hEAAT3-HEK293 cells (glutamate-induced response); assay type: cell-based; details: concentrations up to 100 μM, data not shown
T2 construct: expressed in transfected cells
T2 sequence (P43005 1-524): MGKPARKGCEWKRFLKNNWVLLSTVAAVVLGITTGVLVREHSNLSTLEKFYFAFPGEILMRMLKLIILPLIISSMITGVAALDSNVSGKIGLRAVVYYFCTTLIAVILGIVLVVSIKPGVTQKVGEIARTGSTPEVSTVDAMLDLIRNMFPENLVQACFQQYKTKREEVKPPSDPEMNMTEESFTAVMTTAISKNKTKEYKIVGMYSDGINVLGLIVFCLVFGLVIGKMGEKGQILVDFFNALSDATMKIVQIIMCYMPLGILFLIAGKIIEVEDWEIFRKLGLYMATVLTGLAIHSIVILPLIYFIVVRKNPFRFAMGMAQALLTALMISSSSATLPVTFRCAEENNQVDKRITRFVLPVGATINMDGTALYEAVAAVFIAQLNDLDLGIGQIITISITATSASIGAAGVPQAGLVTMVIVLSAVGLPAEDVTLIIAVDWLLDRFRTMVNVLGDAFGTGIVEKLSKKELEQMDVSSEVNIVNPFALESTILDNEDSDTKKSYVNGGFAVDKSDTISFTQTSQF

Sequence of hα3β4 nAChR (P32297 32-505): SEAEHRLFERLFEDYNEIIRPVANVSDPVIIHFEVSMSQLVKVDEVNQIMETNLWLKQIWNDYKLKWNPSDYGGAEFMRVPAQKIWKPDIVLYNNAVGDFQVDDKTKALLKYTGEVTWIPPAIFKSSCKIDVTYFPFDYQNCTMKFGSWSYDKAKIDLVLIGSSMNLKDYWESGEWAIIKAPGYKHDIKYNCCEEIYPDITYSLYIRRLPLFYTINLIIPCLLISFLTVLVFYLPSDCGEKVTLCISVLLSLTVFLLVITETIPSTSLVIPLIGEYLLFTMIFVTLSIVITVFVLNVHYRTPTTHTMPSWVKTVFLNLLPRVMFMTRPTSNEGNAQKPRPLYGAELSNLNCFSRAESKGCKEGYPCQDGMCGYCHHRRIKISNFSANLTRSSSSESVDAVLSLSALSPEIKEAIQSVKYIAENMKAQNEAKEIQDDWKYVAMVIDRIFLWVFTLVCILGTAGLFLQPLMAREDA
Sequence of hα3β4 nAChR (P30926 22-498): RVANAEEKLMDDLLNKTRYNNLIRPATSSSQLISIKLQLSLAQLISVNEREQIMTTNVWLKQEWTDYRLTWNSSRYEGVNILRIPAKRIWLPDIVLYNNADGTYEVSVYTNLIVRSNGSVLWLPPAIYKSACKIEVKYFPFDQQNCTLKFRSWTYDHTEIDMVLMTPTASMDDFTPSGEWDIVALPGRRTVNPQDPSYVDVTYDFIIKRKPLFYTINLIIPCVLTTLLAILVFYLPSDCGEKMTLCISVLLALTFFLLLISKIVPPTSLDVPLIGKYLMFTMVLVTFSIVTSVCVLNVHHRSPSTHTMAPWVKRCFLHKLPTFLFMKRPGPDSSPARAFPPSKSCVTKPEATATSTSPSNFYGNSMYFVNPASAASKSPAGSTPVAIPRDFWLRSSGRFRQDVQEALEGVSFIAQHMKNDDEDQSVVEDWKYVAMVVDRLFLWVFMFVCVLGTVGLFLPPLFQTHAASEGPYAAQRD

CC(C)(C)c1csc(NC(=O)c2cccc(F)c2)n1 [5a, N-(4-(tert-butyl)thiazol-2-yl)-3-fluorobenzamide]
Modulation of Zn2+-induced response (ZAC/hα1-Gly): negligible effect | Agonist, antagonist or PAM activity (hα3β4 nAChR): did not display significant activity | Voltage dependence of ZAC inhibition (ZAC; 10 μM, H+ (pH 6.5)-evoked currents, −60 mV and +60 mV): voltage-independent | IC50 (ZAC; H+ (pH 6.0) as agonist, TEVC, steady-state current, n = 6): 8.5 µM | Solubility (in words) (Solubility (remark)): limited solubility

COC(=O)c1sc(NC(=O)c2cc(Br)ccc2Cl)nc1C [compound 1, 2-(5-bromo-2-chlorobenzamido)-4-methylthiazole-5-methyl ester]
Effect on glutamate-induced response (hEAAT3): did not affect
